Laboratory results: US20240366589A1, “NHE3-BINDING COMPOUNDS AND METHODS FOR INHIBITING PHOSPHATE TRANSPORT” (Ardelyx, Inc., priority 2013, published 2024)

Columns and labels:
[1] = system: absorption of sodium from the intestinal lumen; test: Fecal form score (FFS) 16 h after oral dose in rats; assay type: in vivo, rat; settings: oral gavage, 16 h post-dose, scale 1-5
Protocol: (§1) Inhibition of intestinal sodium and phosphate absorption. Urinary sodium concentration and fecal form were measured to assess the ability of selected example compounds to inhibit the absorption of sodium from the intestinal lumen. Eight-week old Sprague-Dawley rats were purchased from Charles River Laboratories (Hollister, CA), were housed 2 per cage, and acclimated for at least 3 days before study initiation. Animals were fed Harlan Teklad Global 2018 rodent chow (Indianapolis, IN) and water ad libitum throughout the study and maintained in a standard light/dark cycle of 6 AM to 6 PM. On the day of the study, between 4 PM and 5 PM, a group of rats (n=6) were dosed via oral gavage with test compound, or a pharmaceutically acceptable salt thereof, or vehicle (water) at a volume of 10 mL/kg.
(§2) After dose administration animals were placed in individual metabolic cages where they were also fed the same chow in meal form and watered ad libitum. At 16 h post-dose, the urine samples were collected and fecal form was assessed by two independent observations. Fecal forms were scored according to a common scale associated with increasing fecal water to the wettest observation in the cage's collection funnel (1, normal pellet; 2, pellet adhering to sides of collection funnel due to moisture; 3, loss of normal pellet shape; 4, complete loss of shape with a blotting pattern; 5, liquid fecal streams evident). A rat's fecal form score (FFS) was determined by averaging both observational scores for all rats within a group (n=6). The vehicle group average was 1.

[2] = biological target: T1, Human NHE3 (Homo sapiens, UniProt P48764); test: Cell-based NHE3 activity under prompt conditions (OK cells, BCECF pH recovery), human NHE3; settings: for Prompt Human NHE3 pIC50: prompt conditions
T1 construct: expressed in transfected cells; host or cells: Opossum kidney (OK) cells (ATCC), electroporation
T1 sequence (P48764 26-834): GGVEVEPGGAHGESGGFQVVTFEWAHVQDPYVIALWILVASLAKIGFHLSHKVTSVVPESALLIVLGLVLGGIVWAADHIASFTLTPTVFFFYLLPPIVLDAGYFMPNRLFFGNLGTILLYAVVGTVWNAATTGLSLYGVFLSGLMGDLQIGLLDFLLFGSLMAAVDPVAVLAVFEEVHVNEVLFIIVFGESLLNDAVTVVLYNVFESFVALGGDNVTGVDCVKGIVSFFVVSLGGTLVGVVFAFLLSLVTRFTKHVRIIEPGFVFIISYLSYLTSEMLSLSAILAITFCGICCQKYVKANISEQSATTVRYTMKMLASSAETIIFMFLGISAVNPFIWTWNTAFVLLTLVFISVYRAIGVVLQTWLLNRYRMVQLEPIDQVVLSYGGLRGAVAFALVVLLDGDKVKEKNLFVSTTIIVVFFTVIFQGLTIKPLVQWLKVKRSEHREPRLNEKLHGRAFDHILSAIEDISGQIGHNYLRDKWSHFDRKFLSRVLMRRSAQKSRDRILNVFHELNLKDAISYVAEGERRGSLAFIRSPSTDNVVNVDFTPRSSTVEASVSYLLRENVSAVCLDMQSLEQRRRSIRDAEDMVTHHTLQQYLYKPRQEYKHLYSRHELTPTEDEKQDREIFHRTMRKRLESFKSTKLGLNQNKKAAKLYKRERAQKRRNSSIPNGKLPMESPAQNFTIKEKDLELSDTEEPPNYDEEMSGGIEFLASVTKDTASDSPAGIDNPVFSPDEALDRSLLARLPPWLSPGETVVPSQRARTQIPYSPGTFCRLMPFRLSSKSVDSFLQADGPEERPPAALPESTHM
Protocol: (§3) Cell-based activity under Prompt Conditions. Rat or human NHE3-mediated Na^+-dependent H antiport was measured using a modification of the pH sensitive dye method originally reported by Paradiso (PNAS USA. 81:7436-7440, 1984). Opossum kidney (OK) cells were obtained from the ATCC and propagated per their instructions. The rat NHE3 gene (GenBank M85300) or the human NHE3 gene (GenBank NM_004174.1) was introduced into OK cells via electroporation, and cells were seeded into 96 well plates and grown overnight. Medium was aspirated from the wells, cells were washed twice with NaCl-HEPES buffer (100 mM NaCl, 50 mM HEPES, 10 mM glucose, 5 mM KCl, 2 mM CaCl2, 1 mM MgCl2, pH 7.4), then incubated for 30 min at room temperature with NH4Cl-HEPES buffer (20 mM NH4Cl, 80 mM NaCl, 50 mM HEPES, 5 mM KCl, 2 mM CaCl2, 1 mM MgCl2, pH 7.4) containing 5 μM bis(acetoxymethyl) 3,3′-(3′,6′-bis(acetoxymethoxy)-5-((acetoxymethoxy)carbonyl)-3-oxo-3H-spiro[isobenzofuran-1,9′-xanthene]-2′,7′-diyl)dipropanoate (BCECF-AM).
(§4) Cells were washed twice with Ammonium free, Na^+-free HEPES (100 mM choline, 50 mM HEPES, 10 mM glucose, 5 mM KCl, 2 mM CaCl2, 1 mM MgCl2, pH 7.4) and incubated in the same buffer for 10 minutes at room temperature to lower intracellular pH. […] Initial rates were plotted as the average 2 or more replicates, and pIC50 values were estimated using GraphPad Prism.
(§5) Cell-based activity of NHE3 Activity under ‘Prompt’ Conditions. This assay was performed as described in Example 1 (supra).

[3] = system: absorption of sodium from the intestinal lumen; test: Inhibition of intestinal sodium absorption: urinary sodium (uNa) 16 h after single oral dose in rats; assay type: in vivo, rat; settings: for Urine Na % of control: oral gavage, 16 h post-dose
Protocol: as §1, §2
For urine samples, the volumes were determined gravimetrically and centrifuged at 3,600×g. The supernatants were diluted 100-fold in deionized Milli-Q water then filtered through a 0.2 μm GHP Pall AcroPrep filter plate (Pall Life Sciences, Ann Arbor, MI) prior to analysis by ion chromatography. Ten microliters of each filtered extract was injected onto a Dionex ICS-3000 ion chromatograph system (Dionex, Sunnyvale, CA). Cations were separated by an isocratic method using 25 mM methanesulfonic acid as the eluent on an IonPac CS12A 2 mm i.d.×250 mm, 8 μm particle size cation exchange column (Dionex). Sodium was quantified using standards prepared from a cation standard mix containing Li^+, Na^+, NH4^+, K^+, Mg^2+, and Ca^2+ (Dionex). The mean mass of sodium urinated for every group in the 16 h period was determined with the vehicle group usually urinating approximately 21 mg sodium. The urine Na (uNa) for rats in the test groups were expressed as a percentage of the vehicle mean and the means were compared to that of the vehicle group by utilizing a one-way analysis of variance coupled with a Dunnett's post hoc test.
Further experiments were performed to test the compounds under the persistent and prompt conditions described above, and to test their effects on urinary excretion of sodium in rats. The latter was performed by orally dosing the compounds in rats (single dose) and measuring urinary Na excretion (as a % of vehicle). The results are indicated as percentage of urinary sodium (UNa %); low values indicate relatively active compounds.

[4] = biological target: T2, Rat NHE3 (Rattus norvegicus, UniProt P26433); test: Cell-based NHE3 activity under prompt conditions (OK cells, BCECF pH recovery), rat NHE3; settings: for Prompt Rat NHE3 pIC50: prompt conditions
T2 construct: expressed in transfected cells; host or cells: Opossum kidney (OK) cells (ATCC), electroporation
T2 sequence (P26433 29-831): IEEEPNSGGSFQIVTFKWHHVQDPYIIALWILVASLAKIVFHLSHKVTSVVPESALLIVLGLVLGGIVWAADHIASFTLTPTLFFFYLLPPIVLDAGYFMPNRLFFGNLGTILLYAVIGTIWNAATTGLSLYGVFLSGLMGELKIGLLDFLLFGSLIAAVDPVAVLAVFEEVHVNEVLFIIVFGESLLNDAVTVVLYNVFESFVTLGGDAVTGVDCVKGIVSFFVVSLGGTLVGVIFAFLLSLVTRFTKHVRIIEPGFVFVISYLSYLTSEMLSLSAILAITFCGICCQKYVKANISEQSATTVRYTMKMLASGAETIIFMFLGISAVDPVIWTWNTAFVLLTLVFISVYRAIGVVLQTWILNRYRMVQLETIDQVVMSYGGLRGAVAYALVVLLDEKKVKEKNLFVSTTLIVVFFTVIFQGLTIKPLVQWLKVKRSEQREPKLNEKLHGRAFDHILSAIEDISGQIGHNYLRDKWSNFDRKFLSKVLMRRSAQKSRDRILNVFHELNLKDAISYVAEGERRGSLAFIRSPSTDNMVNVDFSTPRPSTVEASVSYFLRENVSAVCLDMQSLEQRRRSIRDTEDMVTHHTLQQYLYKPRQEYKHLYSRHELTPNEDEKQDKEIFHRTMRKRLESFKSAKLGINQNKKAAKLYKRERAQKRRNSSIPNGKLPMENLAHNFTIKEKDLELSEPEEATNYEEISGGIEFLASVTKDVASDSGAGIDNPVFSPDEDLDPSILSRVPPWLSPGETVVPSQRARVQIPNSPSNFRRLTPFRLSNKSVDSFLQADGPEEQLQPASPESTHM
Protocol: as §3, §4, §5

[5] = system: phosphorus and calcium levels in the urine of rats; test: Urinary excretion of phosphate and calcium in rats (16 h overnight urine); assay type: in vivo, rat; settings: rats, oral gavage, 16 h post-dose

SMILES | Prompt Human NHE3 pIC50 [2] | Prompt Rat NHE3 pIC50 [4] | Fecal Form Score average ([1]; dose 10 mg/kg) | Urine Na % of control ([3]; dose 10 mg/kg) [%] | Urine P % of control ([5]; dose 10 mg/kg) [%] | further results
CN1Cc2c(Cl)cc(Cl)cc2[C@H](c2cccc(S(=O)(=O)NCCOCCOCCNC(=O)CCC(CCC(=O)NCCOCCOCCNS(=O)(=O)c3cccc([C@@H]4CN(C)Cc5c(Cl)cc(Cl)cc54)c3)(CCC(=O)NCCOCCOCCNS(=O)(=O)c3cccc([C@@H]4CN(C)Cc5c(Cl)cc(Cl)cc54)c3)NCc3ccc(-c4ccc(Cl)cc4)cc3)c2)C1 [compound 113] | <5.00 | <5.00 | 1 | 64 | 61 | –
CN(C)[C@H]1Cc2ccccc2[C@@H]1Oc1ccc(S(=O)(=O)NCCOCCOCCNC(=O)NCCCCNC(=O)NCCOCCOCCNS(=O)(=O)c2ccc(O[C@H]3c4ccccc4C[C@@H]3N(C)C)cc2)cc1 [compound 115] | 8.55 | <5.00 | 1 | 69 | 60 | –
CN(C)[C@H]1Cc2c(Cl)cc(Cl)cc2[C@@H]1Oc1ccc(S(=O)(=O)NCCOCCOCCNC(=O)NCCCCNC(=O)NCCOCCOCCN(C)S(=O)(=O)c2ccc(O[C@H]3c4cc(Cl)cc(Cl)c4C[C@@H]3N(C)C)cc2)cc1 [compound 171] | 8.20 | – | 1 | 49 | 49 | –
CC(O)C(CCC(=O)NCCOCCOCCNS(=O)(=O)c1cccc([C@@H]2CN(C)Cc3c(Cl)cc(Cl)cc32)c1)(CCC(=O)NCCOCCOCCNS(=O)(=O)c1cccc([C@@H]2CN(C)Cc3c(Cl)cc(Cl)cc32)c1)CCC(=O)NCCOCCOCCNS(=O)(=O)c1cccc([C@@H]2CN(C)Cc3c(Cl)cc(Cl)cc32)c1 (stereo partly drawn) [compound 173] | 8.10 | 7.60 | – | – | – | –
CN1Cc2c(Cl)cc(Cl)cc2[C@H](c2cccc(NC(=O)[C@H](O)[C@@H](O)[C@H](O)[C@H](O)CO)c2)C1 [Cpd 001] | – | – | – | – | – | IC50 ([2]; Table E5, 001 free base, 002-005 dihydrochloride salt, read-out: Human NHE3 pIC50 Prompt (converted)): 39.8 nM; UNa (%) ([3]; urinary Na excretion as % of vehicle, single oral dose 1 mg/kg): 41 @ 1 mg/kg %; Rat NHE3 pIC50 Prompt ([4]; Table E5, 001 free base, 002-005 dihydrochloride salt): 7.6

Further lines, with some results ahead:

Prompt Human NHE3 pIC50 [2] | Prompt Rat NHE3 pIC50 [4] | SMILES | Fecal Form Score average ([1]; dose 10 mg/kg) | Urine Na % of control ([3]; dose 10 mg/kg) [%] | Urine P % of control ([5]; dose 10 mg/kg) [%] | further results
7.80 | 6.70 | NCCOCCOCCN1CCN(c2cccc(-c3nc(N=C(N)N)nc4ccc(Cl)cc34)c2)CC1 [compound 16] | – | – | – | Fecal Form Score average ([1]; dose 30 mg/kg): 1; Urine Na % of control ([3]; dose 30 mg/kg): 87%; Urine P % of control ([5]; dose 30 mg/kg): 123%
8.55 | 6.87 | N=C(N)Nc1nc(-c2cccc(N3CCN(CCOCCOCCOCCNC(=O)CCOCCOCCOCCOCCOCCC(=O)NCCOCCOCCOCCN4CCN(c5cccc(-c6nc(NC(=N)N)nc7ccc(Cl)cc67)c5)CC4)CC3)c2)c2cc(Cl)ccc2n1 [compound 23] | 1 | 73 | 95 | –
6.80 | 6.95 | NCCOCCOCCOc1ccc(-c2nc(N=C(N)N)nc3ccc(Cl)cc23)cc1 [compound 11] | 1 | 60 | 64 | Fecal Form Score average ([1]; dose 30 mg/kg): 2; Urine Na % of control ([3]; dose 30 mg/kg): 29%; Urine P % of control ([5]; dose 30 mg/kg): 96%
7.70 | – | O=C(NCCCCNC(=O)NCCOCCOCCNS(=O)(=O)c1ccc(O[C@H]2c3cc(Cl)cc(F)c3C[C@@H]2N2CCCCC2)cc1)NCCOCCOCCNS(=O)(=O)c1ccc(O[C@H]2c3cc(Cl)cc(F)c3C[C@@H]2N2CCCCC2)cc1 [compound 160] | 1 | 108 | 77 | –
8.30 | – | CN1Cc2c(Cl)cc(Cl)cc2[C@H](c2cccc(S(=O)(=O)NCCOCCOCCOCCNC(=O)[C@@H](O)[C@H](O)C(=O)NCCOCCOCCOCCNS(=O)(=O)c3cccc([C@@H]4CN(C)Cc5c(Cl)cc(Cl)cc54)c3)c2)C1 [compound 6] | – | – | – | Fecal Form Score average ([1]; dose 1 mg/kg): 2; Urine Na % of control ([3]; dose 1 mg/kg): 21%; Urine P % of control ([5]; dose 1 mg/kg): 46%
